The text below walks through data of ChEMBL document CHEMBL3271952, “Synthesis and pharmacological properties of the N-terminal decapeptide of the vasoactive intestinal peptide (VIP)” (J Med Chem, 1977).

The source made the active and inactive calls. The rule behind the calls is not given here. Peptide text beside a SMILES is read from it.

One experiment is filed under the species Cavia porcellus. Briefly: Vasodilatory activity in guinea pig trachea assessed as muscle relaxation. Format: functional, tissue-based.
The next experiment concerns Stomach. Briefly: Vasodilatory activity in rat stomach smooth muscle assessed as muscle relaxation. Format: functional, tissue-based.
For another experiment, the system named is Canis familiaris. Briefly: Vasodilatory activity in anesthetized dog assessed as effect on blood flow. The settings on record: Canis lupus familiaris. Format: functional, organism-based.

As to `COC(=O)[C@H](Cc1ccc(O)cc1)NC(=O)[C@H](CC(N)=O)NC(=O)[C@H](CC(=O)O)NC(=O)[C@@H](NC(=O)[C@H](Cc1ccccc1)NC(=O)[C@@H](NC(=O)[C@H](C)NC(=O)[C@H](CC(=O)O)NC(=O)[C@H](CO)NC(=O)[C@@H](N)Cc1cnc[nH]1)C(C)C)[C@@H](C)O` (H-HSDAVFTDNY-OMe), the result in the experiment filed under Cavia porcellus and in the experiment with Stomach was Active.

For H-AVKKYLNSILN-NH2, the outcome in the experiment listed under Cavia porcellus, with Stomach and in the experiment on Canis familiaris was Active.

As to H-KQMAVKKYLNSILN-NH2, in the experiment on Canis familiaris, the outcome was Active.

On to H-RKQMAVKKYLNSILN-NH2, for which the result in the experiment on Canis familiaris was inactive.
